# Calls of active or inactive are those of the source. No cut-off for these calls is given here.
# Assays:
# [1] = Antioxidant activity of compound assessed as trolox equivalent antioxidant capacity by ORAC-FL assay; type: functional
# Cholinesterase = Cholinesterase (Homo sapiens, UniProt P06276); test: Pseudo-irreversible inhibition of human serum BChE assessed as enzyme recovery activity at 0.1 times IC50 measured immediately using diluted compound; type: cell-free; design: scale not given: the % may be the effect or the level left
# Chain of Cholinesterase (P06276 whole entry): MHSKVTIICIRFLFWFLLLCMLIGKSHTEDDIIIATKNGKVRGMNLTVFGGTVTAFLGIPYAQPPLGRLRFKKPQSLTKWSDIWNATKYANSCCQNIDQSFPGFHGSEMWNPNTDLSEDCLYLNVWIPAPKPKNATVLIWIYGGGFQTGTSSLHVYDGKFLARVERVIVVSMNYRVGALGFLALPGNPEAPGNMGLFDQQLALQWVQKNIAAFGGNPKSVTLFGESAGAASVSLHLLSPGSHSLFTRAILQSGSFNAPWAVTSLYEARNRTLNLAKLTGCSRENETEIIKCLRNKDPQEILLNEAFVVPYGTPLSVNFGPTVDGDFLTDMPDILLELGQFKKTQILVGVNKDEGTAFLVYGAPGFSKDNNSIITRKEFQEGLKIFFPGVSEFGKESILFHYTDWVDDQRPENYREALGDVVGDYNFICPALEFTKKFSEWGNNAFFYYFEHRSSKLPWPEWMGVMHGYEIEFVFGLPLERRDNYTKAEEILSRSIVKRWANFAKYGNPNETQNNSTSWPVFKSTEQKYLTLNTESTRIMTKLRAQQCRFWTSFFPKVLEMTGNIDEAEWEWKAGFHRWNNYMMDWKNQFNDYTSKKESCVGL
# [2] = Disaggregation of Copper-induced amyloid beta (1 to 42) (unknown origin) preformed fibrils at 25 uM by ThT fluorescence assay relative to control
# [3] = target: Amyloid-beta precursor protein (Homo sapiens) (UniProt P05067); test: Disaggregation of self-induced amyloid beta (1 to 42) (unknown origin) preformed fibrils at 25 uM measured after 48 hrs by TEM analysis
# Chain of Amyloid-beta precursor protein (Homo sapiens) (P05067 whole entry): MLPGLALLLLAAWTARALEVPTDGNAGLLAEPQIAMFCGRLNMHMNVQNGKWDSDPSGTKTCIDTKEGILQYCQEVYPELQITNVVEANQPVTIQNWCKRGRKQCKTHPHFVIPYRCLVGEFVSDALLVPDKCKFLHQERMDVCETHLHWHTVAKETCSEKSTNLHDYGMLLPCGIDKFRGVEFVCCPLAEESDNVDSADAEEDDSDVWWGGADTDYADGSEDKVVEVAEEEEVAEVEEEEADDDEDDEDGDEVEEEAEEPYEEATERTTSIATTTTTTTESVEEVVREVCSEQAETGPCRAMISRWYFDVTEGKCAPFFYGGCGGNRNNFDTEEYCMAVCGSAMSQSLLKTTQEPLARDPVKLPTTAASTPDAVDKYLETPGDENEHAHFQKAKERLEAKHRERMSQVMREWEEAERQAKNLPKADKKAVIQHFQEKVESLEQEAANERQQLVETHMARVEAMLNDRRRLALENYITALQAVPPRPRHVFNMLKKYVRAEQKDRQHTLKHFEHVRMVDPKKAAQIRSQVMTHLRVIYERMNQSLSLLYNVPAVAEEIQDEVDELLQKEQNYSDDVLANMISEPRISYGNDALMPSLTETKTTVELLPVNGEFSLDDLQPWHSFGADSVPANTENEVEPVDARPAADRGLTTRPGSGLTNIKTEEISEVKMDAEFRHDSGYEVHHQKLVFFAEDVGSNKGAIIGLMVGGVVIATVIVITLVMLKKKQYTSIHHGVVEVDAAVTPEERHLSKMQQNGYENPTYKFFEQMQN
# PC-12 [4] = test: Neuroprotective activity against H2O2-induced cell injury in rat PC-12 cells assessed as cell viability at 5 uM preincubated for 2 hrs followed by H2O2 addition and measured after 24 hrs by MTT assay (reference value: 53.8 %); type: functional; conditions: time 26 hrs, read-out: Activity
# PC-12 [5] = test: Neuroprotective activity against H2O2-induced cell injury in rat PC-12 cells assessed as cell viability at 10 uM preincubated for 2 hrs followed by H2O2 addition and measured after 24 hrs by MTT assay (reference value: 53.8 %); type: functional; conditions: time 26 hrs, read-out: Activity
# [6] = Disaggregation of Copper-induced amyloid beta (1 to 42) (unknown origin) preformed fibrils measured after 48 hrs by TEM analysis
# [7] = Cytotoxicity against human L02 cells assessed as cell viability at 50 uM measured after 72 hrs by MTT assay relative to control; type: cell-based; conditions: read-out: Activity
# [8] = Acute toxicity in 2 dpf zebrafish assessed as precipitation at 20 ug/ml measured after 3 days; design: species or system Danio rerio; conditions: in vivo, 72 h, dose 20 µg/ml, time 3 day
# [9] = Acute toxicity in 2 dpf zebrafish assessed as yolk sac absorption delay at 4.17 ug/ml measured after 3 days relative to control; design: species or system Danio rerio; conditions: in vivo, 72 h, at 4.17 µg/mL, time 3 day
# [10] = Acute toxicity in 2 dpf zebrafish assessed as yolk sac absorption delay at 12.5 ug/ml measured after 3 days relative to control; design: species or system Danio rerio; conditions: in vivo, 72 h, at 12.5 µg/mL, time 3 day
# [11] = Acute toxicity in 2 dpf zebrafish assessed as abnormal trunk at 1.39 to 12.5 ug/ml measured after 3 days; design: species or system Danio rerio; conditions: in vivo, 72 h, dose 1.39-12.5 µg/ml, time 3 day
# [12] = Acute toxicity in 2 dpf zebrafish assessed as abnormal tail at 1.39 to 12.5 ug/ml measured after 3 days; design: species or system Danio rerio; conditions: in vivo, 72 h, dose 1.39-12.5 µg/ml, time 3 day
# [13] = Acute toxicity in 2 dpf zebrafish assessed as abnormal notochord at 1.39 to 12.5 ug/ml measured after 3 days; design: species or system Danio rerio; conditions: in vivo, 72 h, dose 1.39-12.5 µg/ml, time 3 day
# [14] = Acute toxicity in 2 dpf zebrafish assessed as abnormal pigmentation at 1.39 to 12.5 ug/ml measured after 3 days; design: species or system Danio rerio; conditions: in vivo, 72 h, dose 1.39-12.5 µg/ml, time 3 day
# [15] = Acute toxicity in 2 dpf zebrafish assessed as effect on liver at 1.39 to 12.5 ug/ml measured after 3 days; design: species or system Danio rerio; conditions: in vivo, 72 h, dose 1.39-12.5 µg/ml, time 3 day
# Danio rerio [16] = species: Danio rerio; test: Antialzheimer activity against 3 dpf zebrafish model of AlCl3-induced AD assessed as change in motility distance at 1.4 ug/ml (reference value: 5204 mm); type: functional; conditions: dose 1.4 µg/ml
# Danio rerio [17] = species: Danio rerio; test: Antialzheimer activity against 3 dpf zebrafish model of AlCl3-induced AD assessed as motility by measuring change in speed at 1.4 ug/ml (reference value: 1.05 mm/s); type: functional; conditions: dose 1.4 µg/ml
# Danio rerio [18] = species: Danio rerio; test: Antialzheimer activity against 3 dpf zebrafish model of AlCl3-induced AD assessed as motility by measuring change in speed at 12.5 ug/ml (reference value: 1.05 mm/s); type: functional; conditions: dose 12.5 µg/ml
# Danio rerio [19] = species: Danio rerio; test: Antialzheimer activity against 3 dpf zebrafish model of AlCl3-induced AD assessed as motility by measuring efficacy on speed change at 1.4 ug/ml relative to control; type: functional; conditions: dose 1.4 µg/ml
# Danio rerio [20] = species: Danio rerio; test: Protection against amyloid beta (1 to 40 residues)-induced vascular injury in transgenic zebrafish assessed as efficacy on motility at 4.2 ug/ml relative to control; type: functional; conditions: dose 4.2 µg/ml
# Danio rerio [21] = species: Danio rerio; test: Protection against amyloid beta (1 to 40 residues)-induced vascular injury in transgenic zebrafish assessed as efficacy on motility at 12.5 ug/ml relative to control; type: functional; conditions: dose 12.5 µg/ml
# [22] = Acute toxicity in Kunming mouse assessed as abnormal behavior at 1000 mg/kg; type: organism-based; conditions: in vivo
# [23] = Acute toxicity in Kunming mouse assessed as dispirited at 2000 mg/kg; type: organism-based; conditions: in vivo
# Mus musculus [24] = test: Reversal of scopolamine-induced Kunming mouse model of memory impairment assessed as spontaneous alteration at 10 mg/kg by Y-maze test (reference value: 41.6 %); type: functional
# Mus musculus [25] = test: Antialzheimer activity in scopolamine-induced Kunming mouse model of memory impairment assessed as Q30 bases ratio (QC data) in brain hippocampus at 10 mg/kg by illumina sequencing method (reference value: 96.67 %); type: functional
# Mus musculus [26] = test: Antialzheimer activity in scopolamine-induced Kunming mouse model of memory impairment assessed as total mapped in brain hippocampus at 10 mg/kg by illumina sequencing method (reference value: 97.13 %); type: functional
# Mus musculus [27] = test: Antialzheimer activity in scopolamine-induced Kunming mouse model of memory impairment assessed as uniquely mapped in brain hippocampus at 10 mg/kg by illumina sequencing method (reference value: 94.54 %); type: functional
# [28] = Drug metabolism in human liver microsomes assessed as metabolite formation by UPLC-MS/MS analysis; type: ADME, Microsome
compound,measurement,setting,value
CCN(C)C(=O)Oc1ccc(-c2cc(=O)c3c(O)cc(OC(=O)N(C)CC)cc3o2)cc1,Activity,[1],1.3 equiv
same,Activity,Cholinesterase,44.8%
same,Activity,[2],64.6%
same,Activity,[3],Active
same,viability at 5 µM,PC-12 [4],68.6%
same,viability at 10 µM,PC-12 [5],76.7%
same,Activity,[6],Active
same,"viability at 72 h, 50 µM",[7],59.7%
same,Activity,[8],Toxic
same,Activity,[9],33.3%
same,Activity,[10],93.3%
same,Activity,[11],Non-Toxic
same,Activity,[12],Non-Toxic
same,Activity,[13],Non-Toxic
same,Activity,[14],Non-Toxic
same,Activity,[15],Non-Toxic
same,Activity,Danio rerio [16],6432 mm
same,Activity,Danio rerio [17],1.8 millimeter/sec
same,Activity,Danio rerio [18],2.17 millimeter/sec
same,Efficacy,Danio rerio [19],58%
same,Efficacy,Danio rerio [20],27%
same,Efficacy,Danio rerio [21],64%
same,Activity,[22],Non-Toxic
same,Activity,[23],Toxic
same,Activity,Mus musculus [24],63.4%
same,Activity,Mus musculus [25],96.43%
same,Activity,Mus musculus [26],96.87%
same,Activity,Mus musculus [27],93.76%
same,Drug metabolism,[28],Metabolite_Detected

# — ChEMBL document CHEMBL4706484, “Apigenin-rivastigmine hybrids as multi-target-directed liagnds for the treatment of Alzheimer's disease” (Eur J Med Chem, 2020)
